Measurements reported in patent publication US20100093747A1, “METHOD OF INDUCING NEGATIVE CHEMOTAXIS” (priority 2008, published 2010).
Marks after values point to notes of the source that are not given here.

Tested on: human neutrophils
Experiment: Chemorepulsion (negative chemotaxis) of neutrophils in Neuroprobe ChemoTx plates, migrated cells quantified with Cell Titer Glo
Type: cell-based
Details: for chemorepulsion class mark in Tables 1-4: methods of Example 1
Procedure: Prior to beginning the assay, the following were prepared: • a. 0.5% Fetal Calf Serum (FCS) in Iscove's Modified Dulbecco's Medium (IMDM) (Assay Medium) (Both from ATCC). • b. Migratory cells at a concentration of 2×10^7 cells/ml in Assay Medium. • c. Four serial (10-fold) dilutions of the ligand of interest in Assay Medium. All stocks were diluted initially 1:100 into Assay Medium and subsequently made into 10 fold dilutions (100 uM, 10 uM, 1 uM, 0.1 uM). […] The same dilutions were followed. • 2. […] The plates were removed from packaging, leaving the membrane behind. • 4. 31 μl of the following solutions were pipetted into each well: • a. For media controls and for chemorepulsion samples, Assay Medium was used. • b. For chemoattraction samples, appropriate dilution of ligand was used. • 5. A sterile needle was used to pop any and all small bubbles present in each well. • 6. The membrane was carefully placed onto the plate, starting at one side and then slowly lowering the other edge onto the plate. • 7. 29 μl of the following were pipetted onto the top of each circle: • a. For media controls and chemoattraction samples, use Assay Medium. • b. For chemorepulsion samples, use the appropriate dilution of ligand. • 8. 2 μl of cells (40,000 cells) were added to each bubble of liquid from step 7. • 9. A needle was used to pop all air bubbles. • 10. The plate was covered with the supplied lid and incubated for the desired time at 37° C. in 5% CO2. Unless otherwise indicated, the incubation time was 1 hour for neutrophils and 3 hours for T cells. For monocytes and B cells, the incubation time was 2 hours. • 11. After the desired assay time, the liquid was removed from the top of the plate using a Kimwipe. At this point, the plate was stored (with the membrane in place) for up to 2 hours at 4° C. • 12. The membrane was carefully removed from the top of the plate and discard. The plate was examined under a microscope to look for ligand crystallization, contamination and overall migration. • 13. White read plates were preloaded with 25 ul PBS. • 14. Using a multichannel pipettor, 5 ul of Cell Titer Glo (Promega # G7572) was added to each well. • 15. Using a multichannel pipettor set at 30 ul, lysed cell solution was transferred to white read plates pre-loaded with PBS. • 16. The plate was read using the BioTek Synergy4 plate reader in order to quantify the number of migrated cells.
Compounds from the chemical analog library were screened once in CR mode as described.

Row | SMILES | chemorepulsion class mark in Tables 1-4 (neutrophils) | also measured
1 | COc1ccc(NC(=O)CSc2nc3cc([N+](=O)[O-])ccc3[nH]2)c(OC)c1 [Compound 33] | 33* (Compounds that showed chemorepulsion that was at least 3-fold greater than media) | 
2 | O=[N+]([O-])c1ccc2nc(-c3cn4ccsc4n3)sc2c1 [Compound 132] | 132* (Compounds that showed chemorepulsion that was at least 3-fold greater than media) | 
3 | COc1ccc2[nH]c(SCc3ccc(Cl)c(Cl)c3)nc2c1 [Compound 22] | 22* (Compounds that showed chemorepulsion that was at least 3-fold greater than media) | 
4 | COc1ccc2[nH]c(SCC(=O)Nc3ccccc3F)nc2c1 [Compound 16] | 16* (Compounds that showed chemorepulsion that was at least 3-fold greater than media) | 
5 | COCCCOc1ccnc(C[S+]([O-])c2nc3ccccc3[nH]2)c1C (stereo not shown) [rabeprazole, reference compound] |  | chemorepulsion over media (neutrophils, rabeprazole at 106 uM, FIG. 59): greater than 3 fold
6 | O=C(CSc1nc2cc([N+](=O)[O-])ccc2[nH]1)Nc1ccc(O)c(C(=O)O)c1 [Compound 59] | 59* (Compounds that showed chemorepulsion that was at least 3-fold greater than media) | 
7 | COc1ccc2[nH]c(SCC(=O)Nc3ccon3)nc2c1 [Compound 79] | 79* (Compounds that showed chemorepulsion that was at least 3-fold greater than media) | 
8 | COc1ccc2[nH]c(SCC(=O)Nc3cc(NC(=O)CSc4nc5cc(OC)ccc5[nH]4)cc(C(=O)O)c3)nc2c1 [Compound 43] | 43* (Compounds that showed chemorepulsion that was at least 3-fold greater than media) | 
9 | COc1ccc2[nH]c(SCC(=O)NCc3ccccc3)nc2c1 [Compound 15] | 15* (Compounds that showed chemorepulsion that was at least 3-fold greater than media) | 
10 | COc1ccc2[nH]c(SCC(=O)Nc3ccc(Cl)cc3)nc2c1 [Compound 40] | 40* (Compounds that showed chemorepulsion that was at least 3-fold greater than media) | 
11 | COc1ccc2[nH]c(SCc3ccc(Cl)cc3)nc2c1 [Compound 11] | 11* (Compounds that showed chemorepulsion that was at least 3-fold greater than media) | 
12 | COc1ccc2[nH]c(SCc3cccc(I)c3)nc2c1 [Compound 45] | 45* (Compounds that showed chemorepulsion that was at least 3-fold greater than media) | 
13 | COc1ccc2[nH]c(SCC(=O)Nc3cc(Cl)ccc3OC)nc2c1 [Compound 37] | 37* (Compounds that showed chemorepulsion that was at least 3-fold greater than media) | 
14 | COc1ccc2[nH]c(N3CCCC(C(=O)NCCc4ccccc4)C3)nc2c1 (stereo not shown) [Compound 157] | 157* (Compounds that showed chemorepulsion that was at least 3-fold greater than media) | 
15 | CSc1nc2cc(Cl)c(Oc3ccc4ccccc4c3Br)cc2[nH]1 [Compound 136] | 136* (Compounds that showed chemorepulsion that was at least 3-fold greater than media) | 
16 | COc1ccc2[nH]c(SCC(=O)Nc3ccc4c(c3)OCO4)nc2c1 [Compound 36] | 36* (Compounds that showed chemorepulsion that was at least 3-fold greater than media) | 
17 | CCOc1ccc2[nH]c(SCC(=O)Nc3nccs3)nc2c1 [Compound 60] | 60* (Compounds that showed chemorepulsion that was at least 3-fold greater than media) | 
18 | COc1ccc2[nH]c(SCC(=O)Nc3ccccc3Br)nc2c1 [Compound 39] | 39* (Compounds that showed chemorepulsion that was at least 3-fold greater than media) | 

Row | SMILES | chemorepulsion class mark in Tables 1-4 (neutrophils) | also measured
19 | CCOc1ccc2[nH]c(SCC(=O)N(c3ccccc3)C(C)C)nc2c1 [Compound 62] | 62* (Compounds that showed chemorepulsion that was at least 3-fold greater than media) | 
20 | CCOc1ccc2[nH]c(SCC(=O)Nc3ccccc3)nc2c1 [Compound 63] | 63* (Compounds that showed chemorepulsion that was at least 3-fold greater than media) | 
21 | COc1ccc2[nH]c(SCC(=O)c3cc(C(C)(C)C)c(O)c(C(C)(C)C)c3)nc2c1 [Compound 20] | 20* (Compounds that showed chemorepulsion that was at least 3-fold greater than media) | 
22 | COc1ccc2[nH]c(Sc3c(-c4ccccc4)c4ccc(Cl)cc4[nH]c3=O)nc2c1 [Compound 99] | 99* (Compounds that showed chemorepulsion that was at least 3-fold greater than media) | 
23 | COc1ccc2[nH]c(SCc3cnc(C)nc3N)nc2c1 [Compound 80] | 80* (Compounds that showed chemorepulsion that was at least 3-fold greater than media) | 
24 | COc1ccc2[nH]c(N3CCCC(C(=O)NCCc4ccc(Cl)cc4)C3)nc2c1 (stereo not shown) [Compound 128] | 128* (Compounds that showed chemorepulsion that was at least 3-fold greater than media) | 
25 | COc1ccc(C(=O)CSc2nc3cc(OC)ccc3[nH]2)cc1 [Compound 21] | 21* (Compounds that showed chemorepulsion that was at least 3-fold greater than media) | 
26 | COc1ccc2[nH]c([S+]([O-])Cc3ncc(C)c(OC)c3C)nc2c1 (stereo not shown) [omeprazole, reference compound] |  | chemorepulsion relative to cells treated with media alone (neutrophils, omeprazole 0.1, 1, 10 and 100 uM, FIG. 2): greater than 5 fold
27 | COc1ccc2nc([S@@+]([O-])Cc3ncc(C)c(OC)c3C)[nH]c2c1 [esomeprazole, reference compound] |  | chemorepulsion of neutrophils in response to the compound (0.048, 0.48, 4.8 or 48 uM, FIGS. 1A, 1B and 1C): showed chemorepulsion; dose dependence of the induction of chemotaxis / chemorepulsion (neutrophils, four 10-fold dilutions): dose-dependent
28 | CCOc1ccc2[nH]c(SCC(=O)Nc3ccc(O)c(C(=O)O)c3)nc2c1 [Compound 58] | 58* (Compounds that showed chemorepulsion that was at least 3-fold greater than media) | 
29 | COc1ccc2[nH]c(SCC(=O)Nc3ccc(Br)cc3)nc2c1 [Compound 38] | 38* (Compounds that showed chemorepulsion that was at least 3-fold greater than media) | 
30 | COc1ccc2[nH]c(SCC(=O)Nc3nc4ccc(OC)cc4s3)nc2c1 [Compound 17] | 17* (Compounds that showed chemorepulsion that was at least 3-fold greater than media) | 
31 | COc1ccc2[nH]c(Sc3ccc(C(F)(F)F)cc3[N+](=O)[O-])nc2c1 [Compound 88] | 88* (Compounds that showed chemorepulsion that was at least 3-fold greater than media) | 
32 | O=C(CSc1nc2cc([N+](=O)[O-])ccc2[nH]1)Nc1ccccc1F [Compound 12] | 12* (Compounds that showed chemorepulsion that was at least 3-fold greater than media) | 
33 | COc1ccc2[nH]c(SCC(=O)Nc3ccccc3[N+](=O)[O-])nc2c1 [Compound 41] | 41* (Compounds that showed chemorepulsion that was at least 3-fold greater than media) | 
34 | COc1ccc2[nH]c(Sc3c(-c4ccccc4)c4cc(Cl)ccc4[nH]c3=O)nc2c1 [Compound 54] | 54* (Compounds that showed chemorepulsion that was at least 3-fold greater than media) | 
35 | COc1ccc2[nH]c(SCC(=O)Nc3ccc([N+](=O)[O-])cc3)nc2c1 [Compound 42] | 42* (Compounds that showed chemorepulsion that was at least 3-fold greater than media) | 
36 | COc1ccc2[nH]c(SCC(=O)c3ccc4c(c3)OCO4)nc2c1 [Compound 23] | 23* (Compounds that showed chemorepulsion that was at least 3-fold greater than media) | 
